Key:
[1] = CHI SQUARE plasma ApoA-I, phospholipid and total cholesterol after infusion; assay type: in vivo, human
Source text: (§1) 504 subjects presenting with acute chest pain or other angina equivalent symptoms, indicative of a diagnosis of ST segment elevation myocardial infarction, non-ST elevation myocardial infarction or unstable angina were enrolled. To be eligible, subjects must have angiographic evidence of coronary artery disease as defined by at least one lesion in any of the three major native coronary arteries that has >20% reduction in lumen diameter by angiographic visual estimation or prior history of percutaneous coronary intervention (“PCI”). The target vessel for PCI was not the target coronary artery for research IVUS, and any vessel with previous PCI could not be used as the target coronary artery.

[2] = system: ABCA1 in mouse ligatured carotids; test: Western blot of ABCA1 expression in ligatured carotids; assay type: in vivo
Protocol: Ligatured carotids previously extracted with chloroform:methanol were solubilized in NAOH 0.1N (100 μL/carotid). The solution was briefly sonicated and centrifuged at 15,000×g for 10 minutes. The protein concentration was determined with Bradford assay and 40 μg of sample were loaded on SDS-PAGE. The ABCA1 expression (ab7360—dilution 1/1000) was quantified using imageJ® software.

ABCA1 in mouse liver = test: ABCA1 protein content in mouse liver; assay type: in vivo; settings: 24 hours after the last injection; increasing concentrations
Protocol: This study examined the SR-BI and ABCA1 protein content in the liver 24 hours after the last injection of CER-001. A piece of liver (50 mg) was lysed in PBS (500 μL) by brief sonication. The sample was centrifuged (800×g for 10 minutes) and the pellet was discarded. The supernatant was centrifuged for 30 minutes at 16,000×g at 4° C. and the pellet was solubilized with PBS 1% Triton X100 (200 μL). 10 μg of solubilized pellet was loaded on SDS PAGE 10% and ABCA1 expression (ab7360—dilution 1/1000) or SR-BI expression (ab24603—dilution 1/1000) was quantified using imageJ® software.

[3] = system: total plaque volume in a 30 mm segment of the target coronary artery; test: CHI SQUARE phase II trial, IVUS first approach; assay type: in vivo, human
Source text: as §1
The study design is illustrated in FIG. 1. The primary endpoint was the nominal change in total plaque volume in a 30 mm segment of the target coronary artery assessed by 3 dimensional IVUS (intra-vascular ultrasound). The key secondary endpoints were % change in plaque volume and change in % atheroma volume in the target 30 mm segment, the change in total vessel volume in the target 30 mm segment, and changes in plaque, lumen and total vessel volumes from baseline in the least and most diseased 5 mm segments. Morbidity and mortality were exploratory endpoints.
Mean total atheroma volume at baseline was 155.24±67.99 mm^3. The adjusted means for change in total atheroma volume were −2.71, −3.13, −1.50 and −3.05 mm^3 in the placebo, CER-001 3 mg/kg, CER-001 6 mg/kg and CER-001 12 mg/kg groups, respectively (p=0.81 for the prespecified primary analysis of 12 mg/kg versus placebo). There were also no differences compared to placebo for the CER-001 6 mg/kg (nominal p=0.45) and 3 mg/kg (nominal p=0.77) groups. The change in percent atheroma volume was similar among all study groups (0.02, −0.02, 0.01 and 0.19% in the placebo, CER-001 3 mg/kg (p=0.86), CER-001 6 mg/kg (p=0.95) and CER-001 12 mg/kg (p=0.53) groups (nominal p-values versus placebo).
In contrast to the “walk-along” approach discussed below, frame pairs were individually selected for optimum readability. Frames were selected based upon absence of echogenicity (calcium) and side branches. A maximum of 31 frames were selected over a 30 mm segment, excluding the benefit of pull-backs longer than 30 mm. No pre-defined criteria were used to select the 31 frames for inclusion in analysis set when >31 frames available.

[4] = Infusion 1, preserved at Infusion 6

Substance: CER-001: engineered recombinant human apolipoprotein A-I HDL with sphingomyelin and DPPG; protein-to-phospholipid ratio 1:2.7, 97% Sph and 3% DPPG
- potency (plasma total cholesterol increase) relative to ETC-216 ([1]; CER-001 at 3 mg/kg): comparable to ETC-216 at 15 mg/kg
- plasma apolipoprotein A-I after IV administration [1, 4]: increases in a dose-dependent manner
- plasma phospholipids after IV administration [1, 4]: increase in a dose dependent manner
- plasma total cholesterol after IV administration [1, 4]: increases in a dose-dependent manner
- slope ratio of phospholipids and ApoA-I dose response curves ([1]; in vivo): 2.8
- carotid ABCA1 expression ([2]; 5 mg/kg): did not affect the ABCA1 expression
- carotid ABCA1 content ([2]; 50 mg/kg): decrease
- liver ABCA1 protein level (ABCA1 in mouse liver): increase in ABCA1 protein level
- adjusted mean change in total atheroma volume ([3]; 3 mg/kg): −3.13 mm^3
- change in percent atheroma volume ([3]; 3 mg/kg): −0.02%
- adjusted mean change in total atheroma volume ([3]; 6 mg/kg): −1.50 mm^3
- change in percent atheroma volume ([3]; 6 mg/kg): 0.01%
- adjusted mean change in total atheroma volume ([3]; 12 mg/kg): −3.05 mm^3
- change in percent atheroma volume ([3]; 12 mg/kg): 0.19%

Source: patent US20180203025A1, “HDL THERAPY MARKERS” (Cerenis Therapeutics Holding SA, priority 2014, published 2018)
